Entries after “also recorded” stand apart in the source; their conditions may differ. Like-named read-outs stand apart in the source and are kept apart here.

For one data set, the system named is postoperative fibrosis. The note with it: after 5 years, mitomycin C in intraoperative therapy (before: 24-74% after 4 years); cited from earlier work.
Data set [1] concerns human dermic fibroblasts. The data set can be described thus: Scratch test assay. Format: cell-based. On the procedure:
(§1) The fibroblasts, cultivated in culture medium DMEM (EuroClone) additioned with 10% of Fetal Bovine Serum (EuroClone) and 1% of penicillin/streptomycin (Sigma-Aldrich), were kept in incubator at 37° C., 5% of CO2 until reaching the full confluence which corresponds approximately to 1.2-1.3*10^6 cells. After detachment from the culture flasks (T75) with a solution of trypsin/EDTA, 1.5-2.5*10^5 or 4.0*10^5 fibroblasts were respectively plated in 60-mm or 100-mm wide Petri dishes for the subsequent treatments.
In six-well plates, 150,000 fibroblasts/well were plated and left to proliferate until reaching a confluence of 80-90%. At this point, defined time zero (T0), the cellular monolayer is damaged by creating a vertical groove corresponding to the well diameter.

Data set [2] has as its system human dermic fibroblasts. Format: cell-based. The note with it: for total cells after 24 hours of treatment: human. On the procedure: as §1
The fibroblasts, cultivated in ninety-six-well plates, were divided into the experimental groups: ctr, Mito and Myr. 24 hours after sowing (T0), the controls were collected for counting the live and dead cells and one proceeded with the treatment of the groups Mito and Myr for the subsequent 24 hours, with the respective substances. After detachment with a solution of trypsin/EDTA, the fibroblasts were isolated by centrifugation (100 g×6 minutes) and the obtained precipitate was resuspended in phosphate buffer. To the cellular suspension, 10% of 0.4% Trypan Blue dye solution was added. The live cells and the dead cells, coloured blue for the intracellular permeation of the dye through the damaged plasmatic membrane, are counted by using Bürker camera (Fabiani C., et al., Naunyn-Schmiedebergs Arch. Pharmacol. 2017; 390:741-751).

A further data set deals with collagen. The data set can be described thus: transcription and translation of collagen in fibroblasts (FIG. 4). Format: cell-based. The note with it: pre-treated 1 hour with Myriocin 50 µM, then 24 hours in combination with TGFβ 5 ng/ml. As to the method: FIG. 4: Ctrl: not treated fibroblasts; TGFβ: fibroblasts treated 24 hours with TGFβ 5 ng/ml; TGFβ/Myr: fibroblasts pre-treated 1 hour with Myriocin 50 µM and for subsequent 24 hours in combination with TGFβ 5 ng/ml; TGFβ/Mito: fibroblasts pre-treated 5 minutes with Mitomycin 50 µM, and for subsequent 24 hours with TGFβ 5 ng/ml in absence of Mitomycin.

Data set [3] concerns CTGF (Connective Tissue Growth Factor). The data set can be described thus: RT-PCR expression of transcript CTGF in fibroblasts. The note with it: myriocin 50 μM 1 hour pretreatment + 24 hours with TGFβ 5 ng/ml. The data set is classed as cell-based, human. As to the method:
(§2) Expression of the transcript (mRNA) of αSMA, CTGF, MMP-9 evaluated by RT-PCR, in fibroblasts: control (ctr); stimulated with TGFβ (TGFβ); pretreated 1 hour with Myriocin and for the subsequent 24 hours in combination with TGFβ (Myr/TGFβ); pretreated 5 minutes with Mitomycin C, washed and treated for the subsequent 24 hours with TGFβ (Mito/TGFβ); pretreated 1 hour with Myriocin and for the subsequent 24 hours with Myriocin (Myr); pretreated 5 minutes with Mitomycin C, washed and for the subsequent 24 hours with culture medium (Mito). The results represent the average±standard error of 5 experiments and they are represented as variation with respect to the control (ratio between the expression in the various groups and the control). The control is set equal to 1 and designated in figure with the dotted line. […]
(§3) The following transcripts of interest were analysed: • αSMA (α Smooth Muscle Actin): marker of the activation of the fibroblasts to miofibroblasts; • CTGF (Connective Tissue Growth Factor): protein of the extracellular matrix with pro-fibrotic activity; • MMP-9 (Matrix metalloproteinase 9): enzyme which degrades the proteins of the extracellular matrix.

Data set [4] relates to fibroblasts. The data set can be described thus: proliferation/vitality MTT assay. The data set is classed as cell-based. The note with it: 24 hours, Myriocin 50 μM, not treated fibroblasts = 100%. On the procedure: These proliferation data result to be an improvement with respect to those obtained by the authors with JM47.2, which is equivalent to a concentration of approximately 56 μM, not considered among the effective concentrations in anti-fibrotic sense.
(In general: Tetrazolium dyes change colour on reduction, which living cells bring about.)

In data set [5] the test system is human dermic fibroblasts. Format: cell-based. The note with it: fibroblasts activated with TGFβ, compared with mitomycin C. As to the method: The anti-fibrotic activity of myriocin, compared to that of mitomycin C, was evaluated in vitro by using human dermic fibroblasts of healthy subjects, available commercially.
as §1
The cells were divided into six experimental groups: • 1. control group without treatment (denominated ctr) • 2. group treated with TGFβ (denominated TGFβ) • 3. group treated with Myriocin and TGFβ (denominated Myr/TGFβ) • 4. group treated with Mitomycin C and TGFβ (denominated Mito/TGFβ) • 5. group treated with Myriocin (denominated Myr) • 6. group treated with Mitomycin C (denominated Mito)
On the day of treatment, in groups ctr, TGFβ, Myr, Myr/TGFβ the culture medium was replaced by fresh medium. The groups Myr and Myr/TGFβ were pretreated for 1 hour with myriocin 5 mM (Sigma-Aldrich) so as to obtain a final concentration of 50 μM. […]

For data set [6], the system named is MMP-9 (Matrix metalloproteinase 9). Description: RT-PCR expression of transcript MMP-9 in fibroblasts. The note with it: myriocin 50 μM 1 hour pretreatment + 24 hours with TGFβ 5 ng/ml. Format: cell-based, human. On the procedure: as §2, §3
Data set [7] concerns the target T1, serine-palmitoyl transferase (Homo sapiens, UniProt O15269+O15270).
T1 construct: the fibroblasts were isolated by centrifugation; endogenous in cells
T1 sequence (O15269 1-473): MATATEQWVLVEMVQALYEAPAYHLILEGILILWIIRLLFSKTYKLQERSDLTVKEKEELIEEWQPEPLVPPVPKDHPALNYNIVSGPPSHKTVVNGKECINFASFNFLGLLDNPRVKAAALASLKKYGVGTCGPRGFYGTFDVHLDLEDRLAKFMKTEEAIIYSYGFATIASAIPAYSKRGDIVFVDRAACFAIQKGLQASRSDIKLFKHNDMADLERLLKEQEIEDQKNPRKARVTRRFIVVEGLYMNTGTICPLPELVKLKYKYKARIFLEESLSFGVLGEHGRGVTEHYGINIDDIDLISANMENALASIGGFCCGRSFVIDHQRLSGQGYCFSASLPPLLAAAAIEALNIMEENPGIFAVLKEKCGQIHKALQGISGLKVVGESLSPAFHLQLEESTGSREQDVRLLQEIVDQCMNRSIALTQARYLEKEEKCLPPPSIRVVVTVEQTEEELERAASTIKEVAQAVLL
T1 sequence (O15270 1-562): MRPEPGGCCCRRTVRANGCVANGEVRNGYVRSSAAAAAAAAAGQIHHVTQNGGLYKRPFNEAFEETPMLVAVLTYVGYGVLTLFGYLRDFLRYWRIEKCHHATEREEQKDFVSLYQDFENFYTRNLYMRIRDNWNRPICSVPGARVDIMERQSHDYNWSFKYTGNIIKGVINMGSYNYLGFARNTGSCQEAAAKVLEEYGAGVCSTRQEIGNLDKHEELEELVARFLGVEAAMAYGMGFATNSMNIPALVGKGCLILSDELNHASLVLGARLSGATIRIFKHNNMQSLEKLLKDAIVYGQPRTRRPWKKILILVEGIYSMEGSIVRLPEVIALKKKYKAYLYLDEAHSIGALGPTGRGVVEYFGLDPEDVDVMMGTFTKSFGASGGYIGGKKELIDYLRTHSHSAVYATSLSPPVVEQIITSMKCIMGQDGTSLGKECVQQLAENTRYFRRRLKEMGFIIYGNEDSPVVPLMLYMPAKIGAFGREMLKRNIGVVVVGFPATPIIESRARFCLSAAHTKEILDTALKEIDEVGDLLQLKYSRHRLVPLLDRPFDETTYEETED
T1 sequence (Q969W0 1-71 partner): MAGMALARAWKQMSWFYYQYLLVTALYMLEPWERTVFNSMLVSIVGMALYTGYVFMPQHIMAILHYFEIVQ
Description: mass spectrometry of the ceramide content of fibroblasts. The data set is classed as cell-based. The note with it: myriocin 50 μM. As to the method:
On the day of treatment, in groups ctr, TGFβ, Myr, Myr/TGFβ the culture medium was replaced by fresh medium. The groups Myr and Myr/TGFβ were pretreated for 1 hour with myriocin 5 mM (Sigma-Aldrich) so as to obtain a final concentration of 50 μM. […] The pretreatment with mitomycin C, lasting 5 minutes to simulate the administration time in the operating room of the drug on the patient suffering from glaucoma, was interrupted by two washes, each one lasting 2 minutes, with phosphate buffer (PBS). To the groups TGFβ, Myr/TGFβ and Mito/TGFβ, TGFβ 200 ng/ml is then added to obtain a final concentration of 5 ng/ml, as reported in literature (Wu N. et al., Mol Cell Biochem. 2020; 470:175-188). The fibroblasts were then put in incubator for 24 hours, until performing the different analyses.
After detachment with a solution of trypsin/EDTA, the fibroblasts were isolated by centrifugation (100 g×6 minutes). The obtained precipitate was resuspended in phosphate buffer (PBS), centrifuged at 100 g×6 minutes, resuspended again in phosphate buffer (PBS) and centrifuged at 500 g×5 minutes at 4° C. The precipitate was resuspended in 100 μl of PBS containing a mixture of protease inhibitors (Protease Inhibitor Cocktails, EDTA-free, Roche) and kept at −20° C. until use. The extraction of the lipids and the analysis of the samples for evaluating the ceramide content, whose synthesis is locked by inhibiting the enzyme serine-palmitoyl transferase by Myr, follow published protocols (Morano C. et al., Metabolites. 2022; 12 (5): 450).

Data set [8] deals with αSMA (α Smooth Muscle Actin). Description: RT-PCR expression of transcript αSMA in fibroblasts. The data set is classed as cell-based, human. The note with it: myriocin 50 μM 1 hour pretreatment + 24 hours with TGFβ 5 ng/ml. As to the method:
as §2, §3

In data set [9] the test system is fibroblasts. The note with it: Josamycin 69.4 μg/ml (JM69.4); cited from earlier work.

Take `CO[C@@]12[C@H](COC(N)=O)C3=C(C(=O)C(C)=C(N)C3=O)N1C[C@@H]1N[C@@H]12` [Mitomycin C]: the “percentage of failure of the surgical therapy” value with postoperative fibrosis is recorded as 23-51%. The cellular death entry in the data set with human dermic fibroblasts [1] (50 μM, 24 and 48 hours) is “induced a progressive cellular death”. Also, in the data set on human dermic fibroblasts [1] (50 μM, 24 and 48 hours, listed as Mitomycin), the “migration of fibroblasts after damage of the cellular carpet” value (“migration of fibroblasts” below) is “migrate only partially”. Further, the “migration of fibroblasts” value in the data set on human dermic fibroblasts [1] (50 μM, 24 and 48 hours, listed as mitomycin C) is recorded as “reduced the migration of fibroblasts”. For the same compound, the “morphological change of fibroblasts” value in the data set with human dermic fibroblasts [1] (between T1 (24 hours) and T2 (48 hours)) is given as “progressive morphological change (from tapering to rounded)”. In the data set with human dermic fibroblasts [2], the “change of total cells after 24 hours” value was “halved” and the “total cells after 24 hours of treatment” value turned out to be 5466 total cells/well.

As to `CCCCCCC(=O)CCCCCC/C=C/C[C@@H](O)[C@H](O)[C@@](N)(CO)C(=O)O` [Myriocin], the “transcription (panel A) and translation (panel B) of collagen” value in the data set on collagen was “capable of controlling the transcription (panel A) and the translation (panel B) of collagen”. Further, the “reduction of CTGF transcript expression increase induced by TGFβ” value in [3] is given as “more effective than mitomycin C”. For the same compound, the “% proliferation (relative proliferation/vitality index)” value in the data set on fibroblasts [4] is “higher than 60%”; with fibroblasts [4] (listed as MYR) it was 62%. For the same compound, the “migration of fibroblasts” value is “migrate only partially” in the data set with human dermic fibroblasts [1] (50 μM, 24 and 48 hours); “reduced the migration of fibroblasts” in the data set on human dermic fibroblasts [1] (50 μM, 24 and 48 hours, listed as myriocin). The anti-fibrotic efficacy result is given as “comparable to mitomycin C” in the data set with human dermic fibroblasts [5] and “comparable to that of the drug mitomycin C” in the data set with human dermic fibroblasts [5] (listed as myriocin). In addition, in [6], the “reduction of MMP-9 transcript expression increase induced by TGFβ” value is given as “more effective than mitomycin C; also recorded: reducing the expression of MMP-9”. Besides, the “increase of total cells after 24 hours” value with human dermic fibroblasts [2] (after 24 hours vs T0) was “about 70%”. For the same compound, the “total cells after 24 hours of treatment” value with human dermic fibroblasts [2] was 11733 total cells/well. For the same compound, the “reduction of ceramide level with respect to basal ctr” value in [7] (Myr group vs ctr) is listed as “about 15%”. Also, the “reduction of dihydroceramide level with respect to basal ctr” value in data set [7] (Myr group vs ctr) was roughly 25%. Also, in data set [7] (Myr/TGFβ vs TGFβ, TGFβ 5 ng/ml), the “reduction of ceramide level with respect to the group stimulated with TGFβ” value was roughly 50%. Besides, the “reduction of dihydroceramide level with respect to the group stimulated with TGFβ” value in [7] (Myr/TGFβ vs TGFβ, TGFβ 5 ng/ml) is given as roughly 60%. The “reduction of αSMA transcript expression increase induced by TGFβ” value in [8] is listed as “more effective than mitomycin C; also recorded: reduces the expression of αSMA”.

With `CO[C@@H]1[C@@H](O[C@@H]2O[C@H](C)[C@@H](O[C@H]3C[C@@](C)(O)[C@@H](OC(=O)CC(C)C)[C@H](C)O3)[C@H](N(C)C)[C@H]2O)[C@@H](CC=O)C[C@@H](C)[C@@H](O)/C=C/C=C/C[C@@H](C)OC(=O)C[C@H]1OC(C)=O` [Josamycin], in the data set with fibroblasts [9], the “proliferation percentage of the fibroblasts” value is “less than 50%”.

The values are drawn from patent US20260240802A1, “USE OF MYRIOCIN AS ADJUVANT IN GLAUCOMA SURGERY” (priority 2023, published 2026).
